tested on: Jurkat cells; assay: Jurkat cell viability, resazurin (Alamar Blue) assay; format: cell-based; conditions: Homo sapiens; Jurkat cells, 22 h then resazurin 4 h; three experiments in duplicates; read-out: IC50
Description: The compounds were tested for pharmacological activity. In each of the tests, each compound was tested at […] in duplicates. […] The percentage of response relative to the DMSO control was then calculated for the mean value of the duplicates of each test. The values of the three tests were finally averaged and the standard deviations calculated.
Jurkat cells (10'000 cells/well) were incubated in the presence of various concentrations of compounds, doxorubicin or staurosporine. Twenty-two hours later, cells were incubated with resazurin (20 μg/ml) for 4 hours and fluorescence was measured at 590 nm.

| IC50 | SMILES |
| --- | --- |
| 11500 nM | Cc1nccc2c1[nH]c1ccc(-c3cccc(N(C)C)c3)cc12 [Example C5, 6-(3-(N,N-dimethylamino)phenyl)-1-methyl-9H-pyrido[3,4-b]indole] |
| 27800 nM | Cc1nccc2c1[nH]c1ccc(-c3cncnc3)cc12 [Example C8, 6-(pyrimidin-5-yl)-1-methyl-9H-pyrido[3,4-b]indole] |
| 41800 nM | Cc1ccccc1-c1ccc2[nH]c3c(C)nccc3c2c1 [Example C9, 6-(2-methylphenyl)-1-methyl-9H-pyrido[3,4-b]indole] |
| > 10000 nM | C=CCn1c2ccc(-c3ccc4c(c3)CCO4)cc2c2ccnc(C)c21 [Example C11] |
| 567 nM | Cc1nccc2c1[nH]c1ccc(-c3cccc(F)c3)cc12 [Example E5, 6-(3-fluorophenyl)-1-methyl-9H-pyrido[3,4-b]indole] |
| 988 nM | Cc1nccc2c1[nH]c1ccc(-c3cccc(CN)c3)cc12 [Example E10, 6-(3-(aminomethyl)phenyl)-1-methyl-9H-pyrido[3,4-b]indole] |
| 46 nM | Cc1nccc2c1[nH]c1ccc(-c3cccc(C(N)=O)c3)cc12 [Example E12, 6-(3-aminocarbonylphenyl)-1-methyl-9H-pyrido[3,4-b]indole] |
| 2030 nM | CC(=O)c1cccc(-c2ccc3[nH]c4c(C)nccc4c3c2)c1 [Example E13, 6-(3-acetylphenyl)-1-methyl-9H-pyrido[3,4-b]indole] |
| 7230 nM | COC(=O)c1cccc(-c2ccc3[nH]c4c(C)nccc4c3c2)c1 [Example E14, 6-(3-methoxycarbonylphenyl)-1-methyl-9H-pyrido[3,4-b]indole] |
| 5000 nM | Cc1nccc2c1[nH]c1ccc(-c3ccc(C#N)cc3)cc12 [Example E22, 6-(4-cyanophenyl)-1-methyl-9H-pyrido[3,4-b]indole] |
| 374 nM | Cc1nccc2c1[nH]c1ccc(-c3ccc4[nH]ccc4c3)cc12 [Example E26, 6-(1H-indol-5-yl)-1-methyl-9H-pyrido[3,4-b]indole] |
| 2290 nM | Cc1nccc2c1[nH]c1ccc(-c3ccc(C=O)o3)cc12 [Example E31, 6-(5-formylfuran-2-yl)-1-methyl-9H-pyrido[3,4-b]indole] |
| 52 nM | Cc1nccc2c1[nH]c1ccc(-c3cccc(CNS(C)(=O)=O)c3)cc12 [Example E45] |
| 627 nM | Cc1nccc2c1[nH]c1ccc(-c3cccc(C(=O)NCCO)c3)cc12 [Example E48, N-(2-hydroxyethyl)-3-(1-methyl-9H-pyrido[3,4-b]indol-6-yl)benzamide] |
| 9 nM | Cc1nccc2c3cc(-c4ccc5c(c4)CCO5)ccc3n(C)c12 [Example E51, 6-(2,3-dihydrobenzofuran-5-yl)-1,9-dimethyl-9H-pyrido[3,4-b]indole] |

The next lines start with the molecule.

| SMILES | IC50 |
| --- | --- |
| Cc1nccc2c3cc(-c4ccc5c(c4)CCO5)ccc3n(Cc3ccccc3)c12 [Example C12] | > 10000 nM |
| CCCCCn1c2ccc(-c3ccc4c(c3)CCO4)cc2c2ccnc(C)c21 [Example C13] | > 10000 nM |
| Cc1nccc2c1[nH]c1ccc(-c3ccccc3F)cc12 [Example E4, 6-(2-fluorophenyl)-1-methyl-9H-pyrido[3,4-b]indole] | 4070 nM |
| Cc1cc(C)cc(-c2ccc3[nH]c4c(C)nccc4c3c2)c1 [Example E8, 6-(3,5-dimethylphenyl)-1-methyl-9H-pyrido[3,4-b]indole] | 128 nM |
| CC(=O)NCc1cccc(-c2ccc3[nH]c4c(C)nccc4c3c2)c1 [Example E11, 6-(3-(acetamidomethyl)phenyl)-1-methyl-9H-pyrido[3,4-b]indole] | 34 nM |
| CC(=O)OCc1cccc(-c2ccc3[nH]c4c(C)nccc4c3c2)c1 [Example E15, 6-(3-(acetoxymethyl)phenyl)-1-methyl-9H-pyrido[3,4-b]indole] | 34 nM |
| CC(=O)OCc1cc(COC(C)=O)cc(-c2ccc3[nH]c4c(C)nccc4c3c2)c1 [Example E16, 6-(3,5-bis(acetoxymethyl)phenyl)-1-methyl-9H-pyrido[3,4-b]indole] | 52 nM |
| Cc1nccc2c1[nH]c1ccc(-c3cccc(O)c3)cc12 [Example E17, 6-(3-hydroxyphenyl)-1-methyl-9H-pyrido[3,4-b]indole] | 195 nM |
| Cc1nccc2c1[nH]c1ccc(-c3cccc(CO)c3)cc12 [Example E18, 6-(3-hydroxymethylphenyl)-1-methyl-9H-pyrido[3,4-b]indole] | 46 nM |
| Cc1nccc2c1[nH]c1ccc(-c3cccc(C(C)O)c3)cc12 (stereo not shown) [Example E19, 6-(3-(1-hydroxyethyl)phenyl)-1-methyl-9H-pyrido[3,4-b]indole] | 1400 nM |
| Cc1nccc2c1[nH]c1ccc(-c3cccc(CC#N)c3)cc12 [Example E23, 6-(3-cyanomethylphenyl)-1-methyl-9H-pyrido[3,4-b]indole] | 64 nM |
| Cc1nccc2c1[nH]c1ccc(-c3cc(C#N)ccc3F)cc12 [Example E24, 6-(5-cyano-2-fluorophenyl)-1-methyl-9H-pyrido[3,4-b]indole] | 968 nM |
| Cc1nccc2c1[nH]c1ccc(-c3cccc(Cc4nn[nH]n4)c3)cc12 [Example E27, 6-(((2H-tetrazol-5-yl)methyl)phenyl)-1-methyl-9H-pyrido[3,4-b]indole] | 2200 nM |
| Cc1ccc(-c2ccc3[nH]c4c(C)nccc4c3c2)o1 [Example E28, 6-(5-methylfuran-2-yl)-1-methyl-9H-pyrido[3,4-b]indole] | 130 nM |
| Cc1nccc2c1[nH]c1ccc(-c3ccc4c(c3)OCO4)cc12 [Example E30, 6-(benzo[d][1,3]dioxol-5-yl)-1-methyl-9H-pyrido[3,4-b]indole] | 490 nM |
| Cc1nccc2c1[nH]c1ccc(-c3ccc(CO)o3)cc12 [Example E32, 6-(5-hydroxymethylfuran-2-yl)-1-methyl-9H-pyrido[3,4-b]indole] | 3660 nM |
| Cc1nccc2c1[nH]c1ccc(-c3cccc(N)c3)cc12 [Example E33, 6-(3-aminophenyl)-1-methyl-9H-pyrido[3,4-b]indole] | 96 nM |
| Cc1nccc2c1[nH]c1ccc(-c3cccc(NC=O)c3)cc12 [Example E34, 6-(3-formamidophenyl)-1-methyl-9H-pyrido[3,4-b]indole] | 28 nM |
| FC(F)(F)c1nccc2c1[nH]c1ccc(-c3ccc4c(c3)CCO4)cc12 [Example E36, 6-(2,3-dihydrobenzofuran-5-yl)-1-trifluoromethyl-9H-pyrido[3,4-b]indole] | 96 nM |
| CCc1nccc2c1[nH]c1ccc(-c3ccc4c(c3)CCO4)cc12 [Example E37, 6-(2,3-dihydrobenzofuran-5-yl)-1-ethyl-9H-pyrido[3,4-b]indole] | 4 nM |
| CCCc1nccc2c1[nH]c1ccc(-c3ccc4c(c3)CCO4)cc12 [Example E38, 6-(2,3-dihydrobenzofuran-5-yl)-1-propyl-9H-pyrido[3,4-b]indole] | 230 nM |
| CC(C)c1nccc2c1[nH]c1ccc(-c3ccc4c(c3)CCO4)cc12 [Example E39, 6-(2,3-dihydrobenzofuran-5-yl)-1-isopropyl-9H-pyrido[3,4-b]indole] | 302 nM |
| CCc1nccc2c1[nH]c1ccc(-c3cccc(COC)c3)cc12 [Example E40, 6-(3-(methoxymethyl)phenyl)-1-ethyl 9H-pyrido[3,4-b]indole] | 2880 nM |
| CCNC(=O)NCc1cccc(-c2ccc3[nH]c4c(C)nccc4c3c2)c1 [Example E41] | 1240 nM |
| Cc1nccc2c1[nH]c1ccc(-c3cccc(CN(C)C)c3)cc12 [Example E42, N,N-dimethyl-1-(3-(1-methyl-9H-pyrido[3,4-b]indol-6-yl)phenyl)methanamine] | 850 nM |
| CCc1nccc2c1[nH]c1ccc(-c3cccc(COCCOC)c3)cc12 [Example E43, 6-(3-((2-methoxyethoxy)methyl)phenyl)-1-ethyl 9H-pyrido[3,4-b]indole] | 340 nM |
| Cc1nccc2c1[nH]c1ccc(-c3cccc(S(N)(=O)=O)c3)cc12 [Example E46, 3-(1-methyl-9H-pyrido[3,4-b]indol-6-yl)benzenesulfonamide] | 260 nM |
| Cc1nccc2c1[nH]c1ccc(-c3cccc(S(=O)(=O)NCCO)c3)cc12 [Example E47, N-(2-hydroxyethyl)-3-(1-methyl-9H-pyrido[3,4-b]indol-6-yl)benzenesulfonamide] | 1210 nM |
| Cc1nccc2c1[nH]c1ccc(-c3cccc(CNC(=O)N4CCN(C)CC4)c3)cc12 [Example E49] | 225 nM |
| CCc1nccc2c3cc(-c4cccc(C(N)=O)c4)ccc3n(C)c12 [Example E50, 3-(1-ethyl-9-methyl-9H-pyrido[3,4-b]indol-6-yl)benzamide] | 16 nM |

same assay, conditions: Jurkat cells, 22 h then resazurin 4 h; three experiments in duplicates

| IC50 (μM) | SMILES |
| --- | --- |
| not active | Cc1nccc2c1[nH]c1ccc(-c3cccc(CC(=O)O)c3)cc12 [Example C7, 6-(3-carboxymethylphenyl)-1-methyl-9H-pyrido[3,4-b]indole] |
| not active | Cc1nccc2c1[nH]c1ccc(-c3ccsc3)cc12 [Example C10, 6-(thiophen-3-yl)-1-methyl-9H-pyrido[3,4-b]indole] |

More lines, now with the values behind:

| SMILES | IC50 (μM) |
| --- | --- |
| Cc1nccc2c1[nH]c1ccc(-c3ccc4ccccc4c3)cc12 [Example C1, 6-(naphthalen-2-yl)-1-methyl-9H-pyrido[3,4-b]indole] | not active |
| Cc1nccc2c1[nH]c1ccc(-c3ccc(Cl)cc3)cc12 [Example C2, 6-(4-chlorophenyl)-1-methyl-9H-pyrido[3,4-b]indole] | not active |
| Cc1nccc2c1[nH]c1ccc(-c3ccc(C(F)(F)F)cc3)cc12 [Example C3, 6-(4-(trifluoromethyl)phenyl)-1-methyl-9H-pyrido[3,4-b]indole] | not active |
| COc1ccc(-c2ccc3[nH]c4c(C)nccc4c3c2)cc1 [Example C4, 6-(4-methoxyphenyl)-1-methyl-9H-pyrido[3,4-b]indole] | not active |
| Cc1nccc2c1[nH]c1ccc(-c3cccc(C(=O)O)c3)cc12 [Example C6, 6-(3-carboxyphenyl)-1-methyl-9H-pyrido[3,4-b]indole] | not active |
